# Experimental data published in PubChem BioAssay (NCI).
#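 Where inhibition never reached the appropriate level, the endpoint shown equals the highest concentration tested. Otherwise, values were interpolated linearly from a five-concentration, 48-hour dose response in 96-well plates. GI50: concentration for 50% inhibition of growth. At the TGI there is no net growth.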
# Assays:
# Test in all cases: NCI tumour cell line growth inhibition, 48 h
# [1] = test system: M19-MEL melanoma
# [2] = test system: BT-549 breast
# [3] = test system: HCC-2998 colon
# [4] = test system: SF-295 CNS
# [5] = test system: TK-10 renal
# [6] = test system: LOX IMVI melanoma
# [7] = test system: DU-145 prostate
# [8] = test system: 786-0 renal
# [9] = test system: DMS 114 small cell lung
# [10] = test system: UACC-257 melanoma
# [11] = test system: XF 498 CNS
SMILES,TGI [1],TGI [2],TGI [3],TGI [4],TGI [5],TGI [6],TGI [7],TGI [8],TGI [9],TGI [10],GI50 [2],GI50 [3],GI50 [4],GI50 [5],GI50 [6],GI50 [7],GI50 [8],GI50 [10],TGI [11]
O=C1C=C(Br)c2c(-c3ccccc3)oc3cccc1c23,> 100 µM,> 100 µM,> 100 µM,> 100 µM,82.1 µM,> 65.4 µM,> 100 µM,> 100 µM,> 100 µM,> 100 µM,,,,,,,,,
CCOC(=O)C1Oc2ccc([N+](=O)[O-])c3c2C1(O)CCC3 (stereo not given),> 100 µM,,> 100 µM,> 100 µM,> 100 µM,> 100 µM,,> 100 µM,> 100 µM,> 100 µM,,,,,,,,,
COc1ccc(N=c2ssc3c(=S)ssc23)cc1,> 100 µM,,> 100 µM,> 100 µM,> 100 µM,34.1 µM,,> 100 µM,26 µM,,,,,,,,,,
N#CC(C(=O)CCC(=O)Nc1cccc(Cl)c1)c1ccccc1 (stereo not given),> 100 µM,,> 100 µM,> 100 µM,> 100 µM,> 100 µM,,> 100 µM,> 100 µM,> 100 µM,,,,,,,,,
Cc1ccc(C2=NOC3=c4ccccc4=CSC3=C2c2ccc([N+](=O)[O-])cc2)cc1,,46.2 µM,> 100 µM,49.9 µM,40.3 µM,53.8 µM,> 100 µM,72.5 µM,,> 100 µM,19.1 µM,24.4 µM,13.3 µM,13 µM,16.2 µM,15.2 µM,0.58 µM,44.4 µM,
COc1ccc(C2=C(Cl)c3cc(OC)c(OC)cc3C2Cl)cc1OC (stereo not given),31.7 µM,,,33.8 µM,46.3 µM,31.1 µM,,41.5 µM,,32 µM,,,,,,,,,29.4 µM
O=[N+]([O-])c1cccc(-c2nc3sccn3c2-c2ccnc(NCCCNS(=O)(=O)c3cccc(F)c3)n2)c1,,11.9 µM,> 100 µM,7.79 µM,52 µM,11 µM,12.9 µM,45.6 µM,,8.27 µM,2.18 µM,6.79 µM,2.52 µM,5.38 µM,2.58 µM,2.6 µM,7.97 µM,2.71 µM,
COc1cccc(C=Nc2cc(C)ccn2)c1O.COc1cccc(C=Nc2cc(C)ccn2)c1O.[Cu],,42.4 µM,37.9 µM,46.1 µM,42 µM,30.9 µM,41.6 µM,45.2 µM,,43.1 µM,16.5 µM,16.2 µM,18 µM,19.8 µM,8.53 µM,19.3 µM,14.3 µM,19.1 µM,
CC(C)(C)c1ccc(OCCCCCCN2CCNCC2)cc1,,27.1 µM,4.62 µM,22.3 µM,27.8 µM,3.66 µM,23.2 µM,11.6 µM,,22.9 µM,10.5 µM,2.38 µM,8.82 µM,13.9 µM,1.83 µM,10.5 µM,3.34 µM,10.5 µM,
C[Si](C)(C)OC1(C#N)C2C3CC4C2C(=O)C2C4C3C21 (stereo not given),> 100 µM,,> 100 µM,,> 100 µM,,,> 100 µM,> 100 µM,> 100 µM,,,,,,,,,
CC(C)(C)c1n[nH]c(=S)n(/N=C/c2ccc(F)c(Oc3ccccc3)c2)c1=O,,94.5 µM,> 100 µM,> 100 µM,91.4 µM,72.2 µM,> 100 µM,> 100 µM,,68.4 µM,34.5 µM,33.2 µM,15.3 µM,22.2 µM,28.7 µM,67.7 µM,34.9 µM,24.2 µM,
C=CC(=O)N1CCN(c2ccc3cccc(NC(=O)c4cnc(C)cn4)c3n2)CC1,,21.6 µM,23.6 µM,> 100 µM,> 100 µM,21.4 µM,> 100 µM,> 100 µM,,36.7 µM,2.31 µM,5.32 µM,13.5 µM,1.12 µM,5.14 µM,2.45 µM,1.77 µM,9.21 µM,
O[C@H]1CO[C@H]2[C@@H]1OC[C@@H]2Oc1ccc(Nc2ccnc(Nc3ccc(O[C@H]4CO[C@H]5[C@@H]4OC[C@@H]5O)c(Cl)c3)n2)cc1Cl,,8.14 µM,6.55 µM,3.22 µM,10.5 µM,3.18 µM,4.19 µM,15.1 µM,,10.2 µM,2.2 µM,2.27 µM,1.65 µM,2.14 µM,1.26 µM,1.56 µM,2.98 µM,2.7 µM,
O=C1C(=O)N(c2ccc(Cl)c(Cl)c2)C(=O)C(=O)C1c1nc2ccccc2s1,> 100 µM,,> 100 µM,> 100 µM,> 100 µM,> 100 µM,,> 100 µM,> 100 µM,> 100 µM,,,,,,,,,
Cc1cc2c3ccc(C)[n+](C)c3ccc2n1C,,13.1 µM,19.8 µM,15.6 µM,> 100 µM,30.2 µM,51.5 µM,> 100 µM,,16.1 µM,2.27 µM,2.6 µM,2.34 µM,13 µM,5.05 µM,5.09 µM,5 µM,3.45 µM,
CCCCCCc1cc(C(=O)Nc2cccc(C(F)(F)F)c2)nc(N)n1,> 100 µM,,> 100 µM,> 100 µM,> 100 µM,> 100 µM,,> 100 µM,> 100 µM,> 100 µM,,,,,,,,,
CCCCCCCCCCCC(=O)OCCOCCOCCOCCOCCOCc1ccc(OC)cc1,> 100 µM,,> 100 µM,> 100 µM,> 100 µM,> 100 µM,,> 100 µM,> 100 µM,> 100 µM,,,,,,,,,
CC1=C(CCC(C)N(C)Cc2ccc(OCCCN3CCCC3)cc2)C(C)(C)CCC1 (stereo not given),,27.1 µM,4 µM,4.09 µM,26.7 µM,3.18 µM,23.4 µM,11.7 µM,,4.12 µM,12.3 µM,1.5 µM,1.89 µM,12.5 µM,1.66 µM,10.8 µM,2.59 µM,2.25 µM,
c1ccc2c(c1)c(NCCCCN1CCCCC1)cc1c3ccccc3c(NCCCCN3CCCCC3)cc21,,45.2 µM,41.6 µM,65.4 µM,48.9 µM,28.2 µM,46.2 µM,29.1 µM,,6.36 µM,20.7 µM,18.2 µM,22.8 µM,22.1 µM,11.2 µM,16.3 µM,12 µM,2.67 µM,
